Tests used:
[1] = Antiamnesic activity in the mouse (step-down passive avoidance, amnesia induced by ECS); format: in vivo, mouse (CD1 male); settings: mouse; for change in vivo at 3 mg/kg: 3 mg/kg OS; for change in vivo at 30 mg/kg: 30 mg/kg OS; for change in vivo at 10 mg/kg: 10 mg/kg OS
Excerpt: 1) Antiamnesic activity in the mouse (step-down passive avoidance)
An electroconvulsive shock (ECS) produces retrograde amnesia in the test animal if applied immediately after the training received, for example, a harmful stimulus of a suitable intensity.
The object of the experiment was to study the effects of the compounds of the invention in antagonizing the amnesic effect of an ECS on the short-term memory consolidation process.
CD1 male mice which weighed about 30-35 g, and had not fasted were used. The equipment used was a rectangular plexiglass cage (21×21×40cm) with an electrifiable grid floor and a wooden cube (4×4×4 cm) fixed in the centre of the cage. The animals were treated orally with the product under test 60 minutes before the training.
The mouse was placed delicately on the wooden cube and the time it took to descend to the grid floor (SDL=step-down latency) was measured. When all four of the animal's paws were resting on the floor the continuous 0.2 mA shock started and the time taken by The mouse to remount the wooden cube (EL=escape latency) was measured.
The animals with an SDL of between 3 and 30 sec and with an EL of between 3 and 60 sec were used for retesting.
Immediately afterwards, a transcorneal ECS was applied with the use of the following parameters: amperage 15 mA, frequency 50 Hz, duration of the train of pulses 0.4 sec. duration of each individual pulse 1 msec., interval between pulses 20 msec. As well as the groups treated with ECS, a control group without ECS and a control group with ECS were used.
The retest was carried out after 24 h.
The results are expressed as the percentage variation of the SDL of the treated groups in comparison with the control group by means of this formula: [formula]

[2] = Antidepressant activity in the behavioural despair test in the mouse; format: in vivo, mouse (male CD1); settings: for inhibition in vivo at 3 mg/kg / inhibition in vivo at 10 mg/kg / inhibition in vivo at 30 mg/kg / inhibition in vivo at 1 mg/kg: 5 min, 5 minutes, read-out: Decrease in immobility (as %) vs the controls; for inhibition in vivo at 3 mg/kg: 3 mg/kg IP; for inhibition in vivo at 10 mg/kg: 10 mg/kg IP; for inhibition in vivo at 30 mg/kg: 30 mg/kg IP; for inhibition in vivo at 1 mg/kg: 1 mg/kg IP; for ED50: read-out: ED50 (dose antagonising immobility time by 50%)
Excerpt: 5) Antidepressant activity in the "behavioural despair test" Another interesting aspect of the pharmacological activity of these products is the potent antidepressant activity which some of them display in an experimental model in the mouse, in which a state of depression is induced experimentally by the method of Porsolt et al. (Arch. Int. Pharmacodyn. 229, p. 327-336 (1977)). Male CDl mice which weighed about 20-25 g and had not fasted were used. The test consisted of inducing a state of depression in the animal which was subjected to forced swimming in a glass cylinder from which it could not escape. After a short period of vigorous activity the mouse adopted a characteristic posture of immobility which was easily identifiable; this immobility is reduced by antidepressant drugs. 1 l glass beakers, filled to 700 ml with water at a temperature of 25° C. were used for the test. The mice, 8 per group, were treated intraperitoneally with the drug under test, 30 minutes before the test. At time 0, each animal was immersed in a beaker and, after one minute during which all moved about swimming vigorously in order to escape, regardless of treatment, the observer, who was unaware of the treatment, assigned the following points: 0=animal immobile 1=minimum movement to remain afloat 2=vigorous swimming The greater the antidepressant activity of the drug, the more the animals will move about in order to try to escape from the water. The points were assigned every 15 sec for a total period of 5 min with a total of 20 observations. The antidepressant activity was determined with the use of various doses of the compound by the regression method as the ED50, that is, the dose in mg/kg of the compound which could antagonise the animal's immobility time by 50%.

[3] = biological target: excitor amino-acid receptors of cortical membranes ("forebrain") of rats; assay: Inhibition of the specific binding of [3H]-glutamate to rat forebrain membranes; settings: for IC50: rat forebrain membranes, 20 min, 37° C., pH 7.1
Excerpt: 6) Studies on binding to rat "forebrain" membranes
L-glutamate recognizes all three receptor subtypes indicated above, al though not selectively. It is therefore desirable to evaluate the capacity of each of the compounds of the invention to interact with the excitor amino-acid receptors of the CNS.
"Forebrain", that is, the cerebral cortex and the hippocampus, were selected as the receptor tissue and ^3 H-L-glutamate as the ligand for marking this heterogenous receptor population.
Rat cerebral tissue (forebrain without striated tissue) was therefore homogeneised cold in tris buffer at pH 7.4. After washing and centrifuging, the final pellet was resuspended in 50 volumes of tris HCl binding buffer at 7.1. 0.5 ml of receptor membrane thus obtained were then incubated, together with the radioactive tracer and the compounds under test, for 20 min at 37° C. The reaction was terminated by separating the bound radio-ligand from the free radio-ligand by filteration on glass-fibre filters which, after washing, were counted in a liquid scintillator (a β-counter) thus determining the radioactivity associated with the pellet. The specific binding was determined as the difference between the binding in the absence and in the presence of cold 3.6 mM L-glutamate.

[4] = Memory-enhancement activity in the passive avoidance test in the rat; format: in vivo, rat (male Wistar); settings: rat
Experimental: 2) Memory-enhancement activity in the "passive avoidance" test in the rat
A "passive avoidance" model was used, which required a single "step-through" situation and a retest of the "retention memory" 72 h after the training.
Male Wistar rats which weighed about 200 g and had not fasted, were used. The test consisted of evaluating the degree of memory of an animal after it had been trained as follows.
The equipment used was a shuttle box modified thus: one compartment was lined with black card including the cover, and a 60 W lamp was disposed above the other, spaced from the grid floor by about 40 cm. The two compartments were divided by an automatic guillotine-like door. Each animal was placed in the compartment in the light with the guillotine-likedoor open. From this moment, the time taken by the rat to go into the compartment lined with black card (the dark compartment) (the step-throughlatency=STL) was measured. The animals which took more than 30 sec to go into the dark were discarded. Once they had gone into the dark, the door was lowered automatically and a=0.1 mA shock lasting 5 sec (a foot shock=FS) started. After 10 sec, the animal was removed from the shuttle box.
Upon completion, the animals were selected randomly in homogeneous groups and treated with the products.
The retest to determine memory was made after 72 hours. The products were administered chronically in the preselected manner twice per day and the last treatment 30 min before the retest (6 treatments altogether).
The memory-retention test (the retest) consisted of placing each animal, treated 30 min beforehand with a physiological solution or with the product, in the compartment which was not lined with black card for 30 sec.
The results are expressed as the percentage variation of the STL (in seconds) of the groups treated in comparison with the control group by means of this formula: [formula]

[5] = po, retest 24 h after training, read-out: Reversal of the amnesia (% vs controls), as the increase in the Step Down Latency

Row | Compound | IC50 [3] | change in vivo at 3 mg/kg [1, 5] | change in vivo at 30 mg/kg [1, 5] | inhibition in vivo at 3 mg/kg [2] | inhibition in vivo at 10 mg/kg [2] | inhibition in vivo at 30 mg/kg [2] | ED50 (dose antagonising immobility time by 50%) ([2]; IP) | change in vivo at 10 mg/kg [1, 5] | inhibition in vivo at 1 mg/kg [2] | ED50 ([2]; IP) | other results
1 | N[C@@H](CCC(=O)O)C(=O)NC12CC3CC(CC(C3)C1)C2 [Compound 14] | 73.3 µM | – | – | 0% | 0% | 21% | Inactive | – | – | – | –
2 | N[C@@H](CCC(=O)O)C(=O)NC1C2CC3CC(C2)CC1C3 (some centres unmarked) [Compound 15] | 132 µM | – | – | 0% | 33% | 75% | – | – | – | 15.4 mg/kg | –

Stronger by IC50 [3], values ahead:

Row | IC50 [3] | Compound | change in vivo at 3 mg/kg [1, 5] | change in vivo at 30 mg/kg [1, 5] | inhibition in vivo at 3 mg/kg [2] | inhibition in vivo at 10 mg/kg [2] | inhibition in vivo at 30 mg/kg [2] | ED50 (dose antagonising immobility time by 50%) ([2]; IP) | change in vivo at 10 mg/kg [1, 5] | inhibition in vivo at 1 mg/kg [2] | ED50 ([2]; IP) | other results
3 | 20.1 µM | CC(C)(C)CCNC(=O)[C@@H](N)CCC(=O)O [Compound 5] | 10% | 22% | 12% | 32% | 23% | Not Calculable | – | – | – | change in vivo at 0.3 mg/kg ([1]; po, 0.3 mg/kg OS, retest 24 h after training, read-out: Reversal of the amnesia (% vs controls), as the increase in the Step Down Latency): 7%
4 | 35.7 µM | N[C@@H](CCC(=O)O)C(=O)NC1CCC2CCCCC2C1 (some centres unmarked) [Compound 11] | 3% | 10% | 32% | 64% | 19% | – | 0% | 5% | 13.5 mg/kg | –
5 | 15 µM | N[C@@H](CCC(=O)O)C(=O)NCCC12CC3CC(CC(C3)C1)C2 [Compound 16] | 46% | 73% | 46% | 77% | 98% | – | 50% | 15% | 3.9 mg/kg | Antiamnesic activity (in words) ([1]; OS): particularly remarkable; change in vivo at 0.1 mg/kg ([1]; po, 0.1 mg/kg OS, retest 24 h after training, read-out: Reversal of the amnesia (% vs controls), as the increase in the Step Down Latency): 0%; change in vivo at 1 mg/kg ([1]; po, 1 mg/kg OS, retest 24 h after training, read-out: Reversal of the amnesia (% vs controls), as the increase in the Step Down Latency): 47%; ED50 ([1]; po, OS, 60 min before training, read-out: ID50 (antiamnesic activity, dose inhibiting the amnesic effect of the ECS by 50%)): 4.6 mg/kg; change in vivo at 0.1 mg/kg ([4]; 96 h, 0.1 mg/kg IP, retest on the 4th day, 6 treatments, read-out: % variation vs controls (FS) in step through latency): 11%; change in vivo at 1 mg/kg ([4]; 96 h, 1 mg/kg IP, retest on the 4th day, 6 treatments, read-out: % variation vs controls (FS) in step through latency): 21%; change in vivo at 10 mg/kg ([4]; 96 h, 10 mg/kg IP, retest on the 4th day, 6 treatments, read-out: % variation vs controls (FS) in step through latency): 57%; ED30 ([4]; IP, read-out: ED30 (dose increasing the latency time (STL) by 30%)): 1 mg/kg; Activity in increasing the avoidance time (in words) ([4]; IP, retest on the 4th day): considerable activity in increasing the avoidance time; Antidepressant activity (in words) ([2]; IP): antidepressant effect of the same order of magnitude as the comparison drug used, amitriptyline; Activity in inhibiting the binding of glutamate (in words) ([3]; rat cortical membranes): considerable activity in inhibiting the binding of the glutamate

Reference: US5723494A, “Derivatives of glutamic and aspartic acids, a method of preparing them, and their use as drugs for enhancing memory and learning” (priority 1993, dated 1998)
